Results taken from patent publication US8933105B2, “Pyrrole compounds” (Takeda Pharmaceutical Company Limited, priority 2007, dated 2015).
Counter-ions that a name gives are not always drawn.

Experiments:
[1] = biological target: T1, proton, potassium-adenosine triphosphatase (H+,K+-ATPase) (Sus scrofa, UniProt P19156); test: Proton potassium-adenosine triphosphatase (H+,K+-ATPase) inhibitory activity test; format: biochemical; details: swine gastric microsomal fraction, pH 6.5, 37° C.
T1 construct: a gastric mucous membrane microsomal fraction was prepared from the stomach of swine; from tissue; host or cells: swine stomach, gastric mucous membrane microsomal fraction
Protocol: Proton Potassium-Adenosine Triphosphatase (H^+,K^+-ATPase) Inhibitory Activity Test
According to the method [Biochim. Biophys. Acta, 728, 31 (1983)] of Wallmark et al., a gastric mucous membrane microsomal fraction was prepared from the stomach of swine. First, the stomach was removed, washed with tap water, immersed in 3 mol/L brine, and the surface of the mucous membrane was wiped with a paper towel. The gastric mucous membrane was detached, chopped, and homogenized in a 0.25 mol/L saccharose solution (pH 6.8) containing 1 mmol/L EDTA and 10 mmol/L tris-hydrochloric acid using polytron (Kinematica). The obtained homogenate was centrifuged at 20,000×g for 30 min and the supernatant was centrifuged at 100,000×g for 90 min. The precipitate was suspended in 0.25 mol/L saccharose solution, superimposed on a 0.25 mol/L saccharose solution containing 7.5% Ficoll, and centrifuged at 100,000×g for 5 hr. The fraction containing the interface between the both layers was recovered, and centrifugally washed with 0.25 mol/L saccharose solution.
The obtained microsomal fraction was used as a proton, potassium-adenosine triphosphatase standard product.
To 40 μL of a 50 mmol/L HEPES-tris buffer (5 mmol/L magnesium chloride, 10 mmol/L potassium chloride, 10 μmol/L valinomycin, pH=6.5) containing 2.5 μg/mL (based on the protein concentration) of the enzyme standard product was added a test compound (5 μL) dissolved in a 10% aqueous dimethyl sulfoxide solution, and the mixture was incubated at 37° C. for 30 min. The enzyme reaction was started by adding 5 μL of a 2 mmol/L adenosine triphosphate tris salt solution (50 mmol/L HEPES-tris buffer (5 mmol/L magnesium chloride, pH 6.5)). The enzyme reaction was carried out at 37° C. for 20 min, and 15 μL of a malachite green solution (0.12% malachite green solution in sulfuric acid (2.5 mol/L), 7.5% ammonium molybdate and 11% Tween 20 were mixed at a ratio of 100:25:2) was added to quench the reaction. After allowing to stand at room temperature for 15 min, the resulting reaction product of inorganic phosphorus with malachite green was calorimetrically determined at a wavelength of 610 nm. In addition, the amount of the inorganic phosphoric acid in the reaction solution free of potassium chloride was measured in the same manner, which was subtracted from the inorganic phosphoric acid amount in the presence of potassium chloride to determine the proton, potassium-adenosine triphosphatase activity. The inhibitory rate (%) was determined from the activity value of the control and the activity values of various concentrations of the test compound, and the 50% inhibitory concentration (IC50) of the proton, potassium-adenosine triphosphatase was determined.

[2] = tested on: Caspase-3/7; test: Caspase-3/7 activity test (Caspase-Glo 3/7 Assay); format: cell-based, Human; details: HepG2, 30 μM, culture for one day, relative to maximum with Staurosporine (100%) and no test reagent (0%)
Protocol: (§1) Human liver cancer-derived cell line HepG2 (ATCC No. HB-8065) was passaged using Dulbecco's Modified Eagle medium (DMEM; Invitrogen) containing 10% fetal bovine serum (FBS; TRACE SCIENTIFIC LTD.), 1 mmol/L sodium pyruvate (Invitrogen), 2 mmol/L L-glutamine (Invitrogen), 50 IU/mL penicillin (Invitrogen) and 50 μg/mL streptomycin (Invitrogen) at 5% CO2, 37° C. The test reagent was prepared with DMSO to 10 mM, and further diluted with DMEM medium containing 0.5% FBS, 1 mmol/L sodium pyruvate, 2 mmol/L L-glutamine, 50 IU/mL penicillin and 50 μg/mL streptomycin to a final concentration of DMSO of 0.1%. HepG2 (2×10^4 cells/well) was cultured on a 96 well white plate (Costar) with the test reagent at 5% CO2, 37° C. After culture for one day, the intracellular ATP content was measured using ATPLite™ (PerkinElmer Life Sciences). The results are shown in Table 26 (n≧3, average value±SD) as a relative value (%) to control (without addition of drug) at 30 μM.
Caspase-3/7 Activity Test
The Caspase-3/7 activity in the cells cultured for one day by a method similar to that in Experimental Example 2 was measured using Caspase-Glo 3/7 Assay (Promega). The results are shown in Table 26 (n≧3, average value±SD) as relative activity (%) of each reagent based on the maximum value of Caspase-3/7 activity when exposed to Staurosporine (100%), and the activity without addition of a test reagent (0%).

[3] = tested on: HepG2; test: ATP content test (intracellular ATP content, ATPLite); format: cell-based, Human; details: HepG2, 30 μM, culture for one day, relative value to control (without addition of drug)
Protocol: as §1

T1 sequence (P19156 2-1034 limits assumed): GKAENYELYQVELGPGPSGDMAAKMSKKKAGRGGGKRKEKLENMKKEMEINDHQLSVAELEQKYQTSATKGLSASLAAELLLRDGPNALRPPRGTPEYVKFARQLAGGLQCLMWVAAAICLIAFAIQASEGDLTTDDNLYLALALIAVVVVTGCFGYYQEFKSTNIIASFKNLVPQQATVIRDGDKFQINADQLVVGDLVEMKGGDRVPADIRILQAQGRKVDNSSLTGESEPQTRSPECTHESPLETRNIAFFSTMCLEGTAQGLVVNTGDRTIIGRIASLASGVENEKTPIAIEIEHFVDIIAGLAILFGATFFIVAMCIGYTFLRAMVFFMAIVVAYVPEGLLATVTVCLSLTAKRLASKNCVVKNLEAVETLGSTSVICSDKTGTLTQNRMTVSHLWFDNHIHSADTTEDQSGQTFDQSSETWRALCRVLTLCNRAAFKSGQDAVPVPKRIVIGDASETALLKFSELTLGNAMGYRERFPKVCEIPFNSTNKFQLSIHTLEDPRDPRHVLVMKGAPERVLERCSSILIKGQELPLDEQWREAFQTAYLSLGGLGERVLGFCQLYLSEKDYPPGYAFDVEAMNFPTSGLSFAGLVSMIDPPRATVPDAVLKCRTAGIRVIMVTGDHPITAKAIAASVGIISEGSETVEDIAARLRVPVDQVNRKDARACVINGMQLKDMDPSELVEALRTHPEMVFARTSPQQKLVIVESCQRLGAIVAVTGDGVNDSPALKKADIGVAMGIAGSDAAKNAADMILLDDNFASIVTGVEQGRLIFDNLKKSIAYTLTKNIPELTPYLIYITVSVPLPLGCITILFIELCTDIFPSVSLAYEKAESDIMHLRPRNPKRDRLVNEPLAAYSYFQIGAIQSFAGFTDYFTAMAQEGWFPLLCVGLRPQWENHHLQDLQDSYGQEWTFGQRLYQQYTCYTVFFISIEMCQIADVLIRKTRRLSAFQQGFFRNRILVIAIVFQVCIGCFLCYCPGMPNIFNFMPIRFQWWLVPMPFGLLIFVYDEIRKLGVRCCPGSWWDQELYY
T1 sequence (P18434 whole entry partner): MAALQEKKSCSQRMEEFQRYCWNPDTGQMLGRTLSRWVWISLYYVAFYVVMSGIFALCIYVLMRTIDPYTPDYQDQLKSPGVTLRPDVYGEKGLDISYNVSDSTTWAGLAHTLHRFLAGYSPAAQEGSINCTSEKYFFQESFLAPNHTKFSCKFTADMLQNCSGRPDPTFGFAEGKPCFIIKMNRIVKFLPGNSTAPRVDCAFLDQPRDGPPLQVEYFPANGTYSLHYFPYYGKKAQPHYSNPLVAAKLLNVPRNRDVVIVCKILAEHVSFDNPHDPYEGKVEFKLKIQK

| Structure (SMILES) | IC50 [1] | Caspase-3/7 activity (%, 30 μM) [2] | ATP content (%, 30 μM) [3] |
| --- | --- | --- | --- |
| CNCc1cc(-c2cccnc2F)n(S(=O)(=O)c2ccccc2)c1.O=C(O)/C=C/C(=O)O [Example 1, 1-[5-(2-fluoropyridin-3-yl)-1-(phenylsulfonyl)-1H-pyrrol-3-yl]-N-methylmethanamine fumarate] | 26 nM | −1.3% | 88.1% |
| CNCc1cc(-c2cccnc2F)n(S(=O)(=O)c2ccco2)c1.O=C(O)/C=C/C(=O)O [Example 3, 1-[5-(2-fluoropyridin-3-yl)-1-(2-furylsulfonyl)-1H-pyrrol-3-yl]-N-methylmethanamine fumarate] | 59 nM | −0.5% | 91.4% |
| CNCc1cn(S(=O)(=O)c2cccnc2)c(-c2cccnc2F)c1F.O=C(O)/C=C/C(=O)O [Example 8, 1-[4-fluoro-5-(2-fluoropyridin-3-yl)-1-(pyridin-3-ylsulfonyl)-1H-pyrrol-3-yl]-N-methylmethanamine fumarate] | 90 nM | 0.2% | 103.9% |
| CNCc1cc(-c2ccc(C)nc2F)n(S(=O)(=O)c2cccnc2)c1.O=C(O)/C=C/C(=O)O [Example 13, 1-[5-(2-fluoro-6-methylpyridin-3-yl)-1-(pyridin-3-ylsulfonyl)-1H-pyrrol-3-yl]-N-methylmethanamine fumarate] | 120 nM | 0.2% | 87.7% |
| CNCc1cc(-c2cccnc2Cl)n(S(=O)(=O)c2ccccc2)c1.Cl [Example 15, 1-[5-(2-chloropyridin-3-yl)-1-(phenylsulfonyl)-1H-pyrrol-3-yl]-N-methylmethanamine hydrochloride] | 43 nM | −0.8% | 90.4% |
| CNCc1cc(-c2cccnc2C#N)n(S(=O)(=O)c2ccccc2)c1.Cl [Example 16, 3-{4-[(methylamino)methyl]-1-(phenylsulfonyl)-1H-pyrrol-2-yl}pyridine-2-carbonitrile hydrochloride] | 120 nM | 0% | 97.1% |
| CNCc1cc(-c2cccnc2F)n(S(=O)(=O)c2ccc(F)cc2)c1.O=C(O)/C=C/C(=O)O [Example 20, 1-{1-[(4-fluorophenyl)sulfonyl]-5-(2-fluoropyridin-3-yl)-1H-pyrrol-3-yl}-N-methylmethanamine fumarate] | 57 nM | −0.2% | 86.6% |
| CNCc1cn(S(=O)(=O)c2ccccc2)c(-c2cccnc2F)c1C.Cl [Example 26, 1-[5-(2-fluoropyridin-3-yl)-4-methyl-1-(phenylsulfonyl)-1H-pyrrol-3-yl]-N-methylmethanamine hydrochloride] | 110 nM | −0.2% | 85.2% |
| CNCc1cn(S(=O)(=O)c2cccnc2)c(-c2cccnc2F)c1F [Example 28, 1-[4-fluoro-5-(2-fluoropyridin-3-yl)-1-(pyridin-3-ylsulfonyl)-1H-pyrrol-3-yl]-N-methylmethanamine 0.5 fumarate] | 71 nM | – | – |
| CNCc1cn(S(=O)(=O)c2ccccc2)c(-c2cccnc2F)c1F [Example 30, 1-[4-fluoro-5-(2-fluoropyridin-3-yl)-1-(phenylsulfonyl)-1H-pyrrol-3-yl]-N-methylmethanamine 0.5 fumarate] | 26 nM | −0.6% | 97.3% |
| CNCc1cn(S(=O)(=O)c2cccnc2)c(-c2cccnc2Cl)c1F.O=C(O)/C=C/C(=O)O [Example 38, 1-[5-(2-chloropyridin-3-yl)-4-fluoro-1-(pyridin-3-ylsulfonyl)-1H-pyrrol-3-yl]-N-methylmethanamine fumarate] | 130 nM | −0.4% | 93.4% |
| CNCc1cn(S(=O)(=O)c2cccc(CO)c2)c(-c2cccnc2F)c1F [Example 48, [3-({3-fluoro-2-(2-fluoropyridin-3-yl)-4-[(methylamino)methyl]-1H-pyrrol-1-yl}sulfonyl)phenyl]methanol 0.5 fumarate] | 130 nM | −0.8% | 92.7% |
| CNCc1cn(S(=O)(=O)c2ccoc2)c(-c2cccnc2F)c1F.Cl [Example 50, 1-[4-fluoro-5-(2-fluoropyridin-3-yl)-1-(3-furylsulfonyl)-1H-pyrrol-3-yl]-N-methylmethanamine hydrochloride] | 60 nM | −0.3% | 99.8% |
| CNCc1cc(-c2cccnc2Cl)n(S(=O)(=O)c2cccc(C#N)c2)c1.O=C(O)/C=C/C(=O)O [Example 54, 3-({2-(2-chloropyridin-3-yl)-4-[(methylamino)methyl]-1H-pyrrol-1-yl}sulfonyl)benzonitrile fumarate] | 65 nM | −0.4% | 96.8% |
| CNCc1cn(S(=O)(=O)c2cnn(C)c2)c(-c2cccnc2F)c1Cl.O=C(O)/C=C/C(=O)O [Example 58, 1-{4-chloro-5-(2-fluoropyridin-3-yl)-1-[(1-methyl-1H-pyrazol-4-yl)sulfonyl]-1H-pyrrol-3-yl}-N-methylmethanamine fumarate] | 300 nM | −1.9% | 98.0% |
| CNCc1cn(S(=O)(=O)c2ccc(CO)o2)c(-c2cccnc2F)c1F [Example 64, [5-({3-fluoro-2-(2-fluoropyridin-3-yl)-4-[(methylamino)methyl]-1H-pyrrol-1-yl}sulfonyl)-2-furyl]methanol 0.5 fumarate] | 190 nM | −0.1% | 102.2% |
| CNCc1cn(S(=O)(=O)c2ccc(CF)o2)c(-c2cccnc2F)c1F.O=C(O)/C=C/C(=O)O [Example 66, 1-[4-fluoro-1-{[5-(fluoromethyl)-2-furyl]sulfonyl}-5-(2-fluoropyridin-3-yl)-1H-pyrrol-3-yl]-N-methylmethanamine fumarate] | 140 nM | −0.2% | 94.8% |
| CNCc1cn(S(=O)(=O)c2ccc(C#N)o2)c(-c2cccnc2F)c1F.O=C(O)/C=C/C(=O)O [Example 68, 5-({3-fluoro-2-(2-fluoropyridin-3-yl)-4-[(methylamino)methyl]-1H-pyrrol-1-yl}sulfonyl)-2-furonitrile fumarate] | 170 nM | 3.6% | 83.4% |
